Test systems include A549 NSCLC; CCRF-CEM leukemia; HOP-92 NSCLC; HT29 colon; MDA-MB-435; OVCAR-4 ovarian; SK-OV-3 ovarian; SR leukemia; SW-620 colon; UO-31 renal.
Test in all cases: growth of human tumour cells (NCI), 48 h

“And” between values parts separate entries of the source, which are not always exact repeats. Equal values may be shown once.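 All cell lines were grown in 96-well plates and treated with compound for 48 hours. GI50 is the concentration that inhibits growth by half. At the TGI there is no net growth.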

As for `COc1ccc(Cl)cc1Nc1nc(C(F)(F)F)ccc1C(=O)NN`, the GI50 is 18.4 µM with A549 NSCLC; 0.319 µM with CCRF-CEM leukemia; 2.56 µM in the experiment on HOP-92 NSCLC; 26.3 µM with HT29 colon; 9.08 µM with MDA-MB-435; 3.21 µM in the experiment with OVCAR-4 ovarian. Besides, the GI50 with SK-OV-3 ovarian is 3.88 µM; in the experiment with SR leukemia, 0.404 µM; with SW-620 colon, 27.9 µM; in the experiment with UO-31 renal, 3.97 µM. Besides, the TGI is more than 100 µM in the experiment on A549 NSCLC; 2.86 µM with CCRF-CEM leukemia; 40.1 µM with HOP-92 NSCLC; more than 100 µM in the experiment on HT29 colon; more than 100 µM with MDA-MB-435; more than 100 µM in the experiment with OVCAR-4 ovarian. For the same molecule, the TGI with SK-OV-3 ovarian is more than 68.1 µM; with SR leukemia, 3.56 µM; in the experiment on SW-620 colon, more than 100 µM; in the experiment on UO-31 renal, more than 76.7 µM.

On to `C/C(=N\O)c1ccc(Nc2cc(-n3nnc4ccccc43)nc3ccccc23)cc1`, for which the GI50 was 8.42 µM with A549 NSCLC; 2.75 µM with CCRF-CEM leukemia; 14.4 µM in the experiment with HOP-92 NSCLC; 5.89 µM in the experiment with HT29 colon; 8.86 µM in the experiment on MDA-MB-435; 13.9 µM in the experiment on OVCAR-4 ovarian. In addition, the GI50 with SK-OV-3 ovarian was 24.1 µM; with SR leukemia, 18.7 µM; in the experiment with SW-620 colon, 11.6 µM; in the experiment on UO-31 renal it was 6.79 µM. Besides, the TGI is more than 41.3 µM with A549 NSCLC; 30.3 µM in the experiment with CCRF-CEM leukemia; 46.5 µM in the experiment with HOP-92 NSCLC; more than 100 µM in the experiment with HT29 colon; more than 28.3 µM in the experiment on MDA-MB-435; more than 72.2 µM in the experiment on OVCAR-4 ovarian. Moreover, the TGI in the experiment with SK-OV-3 ovarian is more than 62.3 µM; in the experiment on SR leukemia, 74.9 µM; in the experiment with SW-620 colon it was 39.4 µM; in the experiment with UO-31 renal, 26.6 µM.

On to `CNC(=O)Nc1ccc(-c2nc(N3CCOCC3)nc3c2cnn3C2CCOCC2)cc1`, for which the GI50 is 0.204 µM in the experiment with A549 NSCLC; 0.276 µM in the experiment with CCRF-CEM leukemia; 0.0371 µM with HOP-92 NSCLC; 0.295 µM in the experiment with HT29 colon; 0.168 µM with MDA-MB-435; 0.191 µM with OVCAR-4 ovarian. Moreover, the GI50 in the experiment on SK-OV-3 ovarian is 0.12 µM; in the experiment on SR leukemia it was 0.239 µM; with SW-620 colon it was 0.332 µM; with UO-31 renal, 0.0435 µM. For the same molecule, the TGI is 2.71 µM in the experiment with A549 NSCLC; more than 100 µM in the experiment with CCRF-CEM leukemia; 0.526 µM in the experiment on HOP-92 NSCLC; more than 100 µM in the experiment with HT29 colon; 0.821 µM with MDA-MB-435; 0.685 µM in the experiment on SK-OV-3 ovarian. In addition, the figures for the TGI with SR leukemia, in the experiment with SW-620 colon and with UO-31 renal were more than 19.8 µM, more than 100 µM and 0.544 µM, respectively.

For the molecule `Cc1cc(N(CCNc2ccnc3cc(Cl)ccc23)Cc2ccc3c(c2)OCO3)nc(N2CCN(C)CC2)n1`, the GI50 with A549 NSCLC was 3.51 µM; with CCRF-CEM leukemia, 2.98 µM; in the experiment on HOP-92 NSCLC it was 1.29 µM; in the experiment with HT29 colon it was 1.84 µM; in the experiment on MDA-MB-435, 1.61 µM; in the experiment on OVCAR-4 ovarian, 2.83 µM. Besides, the GI50 in the experiment with SK-OV-3 ovarian is 9.55 µM; with SR leukemia, 1.5 µM; in the experiment with SW-620 colon, 2.08 µM; in the experiment with UO-31 renal, 1.43 µM. The TGI in the experiment with A549 NSCLC turned out to be 12.8 µM; in the experiment with CCRF-CEM leukemia, 9.31 µM; in the experiment with HOP-92 NSCLC it was 2.96 µM; in the experiment on HT29 colon, 5.96 µM; in the experiment on MDA-MB-435, 3.07 µM; with OVCAR-4 ovarian it was 13.9 µM. Moreover, the TGI turned out to be 21.6 µM in the experiment with SK-OV-3 ovarian, 4.43 µM in the experiment with SR leukemia, 5.41 µM with SW-620 colon and 2.85 µM in the experiment with UO-31 renal.

Regarding `Clc1ccc(COC(Cn2ccnc2)c2ccc(Cl)cc2Cl)cc1` (centres undefined), the GI50 was 2.78 µM with A549 NSCLC; 3.22 µM in the experiment on CCRF-CEM leukemia; 0.511 µM in the experiment with HOP-92 NSCLC; 1.95 µM with HT29 colon; 2.91 µM in the experiment with MDA-MB-435; 2.29 µM with OVCAR-4 ovarian. In addition, the GI50 in the experiment with SK-OV-3 ovarian was 4.24 µM; with SR leukemia, 2.79 µM; in the experiment on SW-620 colon it was 2.96 µM; in the experiment on UO-31 renal, 1.44 µM. Besides, the TGI is 12.1 µM and 27 µM and 23.9 µM with A549 NSCLC; 14.1 µM and 23.7 µM and 21.1 µM in the experiment with CCRF-CEM leukemia; 3.42 µM and 24.1 µM and 25.2 µM in the experiment on HOP-92 NSCLC; 5.22 µM and 22.4 µM and 21.5 µM with HT29 colon; 11.7 µM and 24.4 µM and 24 µM in the experiment on MDA-MB-435; 13.6 µM and 27.7 µM and 24.5 µM in the experiment on OVCAR-4 ovarian. Also, the TGI was 14.8 µM and 26.8 µM and 35.2 µM in the experiment on SK-OV-3 ovarian; 10.6 µM and 21.6 µM and 14.7 µM in the experiment with SR leukemia; 13.3 µM and 27.4 µM and 29.2 µM in the experiment on SW-620 colon; 5.91 µM and 17.4 µM and 14.6 µM with UO-31 renal.

Turning to `CC(C)n1c(/C=C/[C@@H](O)C[C@@H](O)CC(=O)O)c(-c2ccc(F)cc2)c2ccccc21`, the GI50 was 5.93 µM and 6.99 µM with A549 NSCLC; 13.8 µM and 13.4 µM with CCRF-CEM leukemia; 0.0329 µM and 0.0368 µM with HOP-92 NSCLC; 12.8 µM and 15.6 µM in the experiment with HT29 colon; 10.5 µM and 14.4 µM in the experiment on MDA-MB-435; 10.4 µM and 12.9 µM in the experiment with OVCAR-4 ovarian. The GI50 with SK-OV-3 ovarian was 19.8 µM and > 51.3 µM; in the experiment with SR leukemia, 2.16 µM and 2.8 µM; in the experiment with SW-620 colon, 3.76 µM and 5.15 µM; with UO-31 renal it was 4.91 µM and 3.26 µM. Moreover, the TGI in the experiment on A549 NSCLC is more than 100 µM; in the experiment on CCRF-CEM leukemia, more than 100 µM; with HOP-92 NSCLC, 0.282 µM and 0.183 µM; in the experiment with HT29 colon it was more than 100 µM; in the experiment on MDA-MB-435, more than 100 µM; with OVCAR-4 ovarian, more than 100 µM. Also, the TGI was more than 100 µM in the experiment with SK-OV-3 ovarian, more than 61.7 µM with SR leukemia, more than 100 µM with SW-620 colon and more than 100 µM in the experiment on UO-31 renal.

Consider `COC(=O)c1ccc2c(c1)C(NC(C)=O)CCc1cc(OC)c(OC)c(OC)c1-2` (centres undefined), for which the TGI was more than 100 µM in the experiment with A549 NSCLC; more than 35.6 µM with CCRF-CEM leukemia; 13.1 µM in the experiment with HOP-92 NSCLC; 1.28 µM in the experiment on HT29 colon; less than 0.01 µM in the experiment with MDA-MB-435; more than 100 µM with OVCAR-4 ovarian. Further, the TGI is 13.9 µM in the experiment on SK-OV-3 ovarian, 2.68 µM with SR leukemia, more than 100 µM with SW-620 colon and more than 81 µM in the experiment on UO-31 renal.

Take `O=C(Nc1ccc(OC(F)(F)F)cc1)c1sccc1NCc1ccnc2ccccc12`: the GI50 in the experiment on A549 NSCLC is 4.11 µM; with CCRF-CEM leukemia, 3.72 µM; in the experiment with HOP-92 NSCLC it was 2.5 µM; with HT29 colon, 3.36 µM; in the experiment with MDA-MB-435, 2.87 µM; with OVCAR-4 ovarian, 4.57 µM. The GI50 was 2.42 µM with SK-OV-3 ovarian, 4.25 µM in the experiment on SR leukemia, 5.03 µM with SW-620 colon and 2.34 µM with UO-31 renal. For the same molecule, the TGI in the experiment with A549 NSCLC is more than 100 µM; in the experiment with CCRF-CEM leukemia, more than 100 µM; with HOP-92 NSCLC, 19 µM; with HT29 colon, more than 100 µM; in the experiment on MDA-MB-435 it was 18.7 µM; with OVCAR-4 ovarian, more than 100 µM. In addition, the TGI in the experiment on SK-OV-3 ovarian is more than 100 µM; with SR leukemia it was more than 100 µM; with SW-620 colon, more than 100 µM; in the experiment on UO-31 renal it was 26.1 µM.
